Experimental data published in PubChem BioAssay (NCI).
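Growth conditions: 96-well plates. Treatment: test compound, 48 hours, 5 concentrations. Analysis: linear interpolation between bracketing concentrations; unreached endpoints set to highest concentration. Abbreviation: GI50, concentration required for 50% inhibition of growth. TGI is the concentration that stops growth completely.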

Key:
Test in all cases: NCI-60 cell line screen, 48 h
[1] = tested on: NCI-H23 lung
[2] = tested on: NCI-H460 lung
[3] = tested on: NCI-H522 lung
[4] = tested on: NCI/ADR-RES ovarian
[5] = tested on: OVCAR-3 ovarian
[6] = tested on: OVCAR-4 ovarian
[7] = tested on: OVCAR-5 ovarian
[8] = tested on: OVCAR-8 ovarian
[9] = tested on: PC-3 prostate
[10] = tested on: RPMI-8226 leukemia
[11] = tested on: RXF 393 renal
[12] = tested on: SF-268 CNS
[13] = tested on: SF-295 CNS
[14] = tested on: SF-539 CNS
[15] = tested on: SK-MEL-2 melanoma
[16] = tested on: SK-MEL-28 melanoma
[17] = tested on: SK-MEL-5 melanoma
[18] = tested on: SK-OV-3 ovarian
[19] = tested on: SN12C renal
[20] = tested on: SNB-19 CNS
[21] = tested on: SNB-75 CNS
[22] = tested on: SR leukemia
[23] = tested on: SW-620 colon
[24] = tested on: T-47D breast
[25] = tested on: TK-10 renal
[26] = tested on: U251 CNS
[27] = tested on: UACC-257 melanoma
[28] = tested on: UACC-62 melanoma
[29] = tested on: UO-31 renal

C=C1C(=O)O[C@H]2[C@H]1CC/C(COC(=O)C(=O)c1c[nH]c3ccc(Cl)cc13)=C\CC[C@@]1(C)O[C@@H]21
GI50 [1]: 1.65 µM
TGI [1]: 3.31 µM
GI50 [2]: 2.45 µM
TGI [2]: 5.93 µM
GI50 [3]: 1.53 µM
TGI [3]: 3.24 µM
GI50 [4]: 1.94 µM
TGI [4]: 4.94 µM
GI50 [5]: 0.52 µM
TGI [5]: 2.01 µM
GI50 [6]: 2.34 µM
TGI [6]: 7.03 µM
GI50 [7]: 2.1 µM
TGI [7]: 5.17 µM
GI50 [8]: 2.32 µM
TGI [8]: 6.82 µM
GI50 [9]: 1.76 µM
TGI [9]: 3.57 µM
GI50 [10]: 0.422 µM
TGI [10]: 3.29 µM
GI50 [11]: 1.4 µM
TGI [11]: 2.79 µM
GI50 [12]: 1.73 µM
TGI [12]: 3.97 µM
GI50 [13]: 5.77 µM
TGI [13]: 18.6 µM
GI50 [14]: 1.74 µM
TGI [14]: 3.32 µM
GI50 [15]: 1.94 µM
TGI [15]: 4.23 µM
GI50 [16]: 1.88 µM
TGI [16]: 3.92 µM
GI50 [17]: 1.86 µM
TGI [17]: 3.41 µM
GI50 [18]: 11.6 µM
TGI [18]: 24.1 µM
GI50 [19]: 1.84 µM
TGI [19]: 4.17 µM
GI50 [20]: 3.22 µM
TGI [20]: 10.8 µM
GI50 [21]: 1.48 µM
TGI [21]: 3.87 µM
GI50 [22]: 0.342 µM
TGI [22]: 12.2 µM
GI50 [23]: 1.67 µM
TGI [23]: 10.3 µM
GI50 [24]: 1.62 µM
TGI [24]: 3.77 µM
GI50 [25]: 1.73 µM
TGI [25]: 3.2 µM
GI50 [26]: 1.9 µM
TGI [26]: 3.45 µM
GI50 [27]: 2 µM
TGI [27]: 4.13 µM
GI50 [28]: 1.28 µM
TGI [28]: 3.54 µM
GI50 [29]: 1.22 µM
TGI [29]: 2.53 µM
